Data on three compounds can be found in patent US11426375B2, “Substituted bisphenyl butanoic ester derivatives as NEP inhibitors” (NOVARTIS AG, priority 2019, dated 2022).

Details of data set [1]: species or system Sprague Dawley rats. The conditions noted are these: rat, in vivo, po, 10 mg/kg; for LBQ657 concentration-time profile / conversion to LBQ657: male, Sprague-Dawley. How it is done: A parallel study design consisting of four groups with three animals per group was conducted to examine the pharmacokinetic properties of the compounds of the present disclosure.
The drugs were administered to each group are as follows: compound I-1 (Group 1), compound I-2 (Group 2), compound I-3 (Group 3), and AHU377 (sacubitril) (Group 4). Each animal received a single 10 mg/kg (5 ml/kg) oral gavage dose of the specified study drug. The animal weights ranged from […] at the beginning of the study. Compound I-1, compound I-2, compound I-3, and AHU377 were formulated in 0.5% methylcellulose (400 cp) and 0.1% Tween 80 (w,v) in water was used as the vehicle. Water bath sonication was applied to facilitate dispersing for all four study drugs. Blood samples for pharmacokinetics analysis were collected at t=0.25, 0.5, 1, 2, 4, 8, and 24 hours (±5%) post dose administration. Plasma was prepared by collecting whole blood samples into tubes containing EDTA and NaF (final concentrations: ˜1 mg/mL (K2EDTA) and ˜2 mg/mL (NaF)). These tubes were kept in an ice bath prior to centrifugation at approximately 2,000 rcf for 10 minutes at approximately 5° C. To each resultant plasma sample, 50% phosphoric acid (v/v) was added to achieve a final concentration of 1% (v,v).
[^13C4]-LBQ657 was added as an internal standard to the pharmacokinetic (PK) samples and calibration standards prior to analysis by LC-MS/MS. The LC-MS system consisted of an API6500+ mass spectrometer coupled to an Agilent 1290 HPLC system equipped with a CTC Pal autosampler. The mass spectrometer was operated in the positive ion mode with a TESI ion source.

A short description of data set [2]: Hygroscopicity, weight gain at 90% RH. The format is physicochemical. The conditions noted are these: after exposure to 90% RH. An excerpt: The weight gain of compound I-1 after exposure to 90% RH (relatively humidity) was 0.34%, while that of AHU377 under the same conditions was 3.4%. […] On the other hand, AHU377 is a wax-like solid, which needs to be properly processed before further pharmaceutical processing such as weighing, dispensing and filling.

On the set-up of data set [3]: species or system Cynomolgus Monkeys. The conditions noted are these: cynomolgus monkey, in vivo, po, 10 mg/kg. How it is done:
A cross-over study design consisting of two groups with two animals per group was conducted to examine the pharmacokinetic properties of compound I-1 of the present disclosure.
Compound I-1 and AHU377 were administered to each group as follows: compound I-1 on Day 0 followed by AHU377 on Day 2 (Group 1), AHU377 on Day 0 followed by compound I-1 on Day 2 (Group 2). Each animal received a single 10 mg/kg (5 ml/kg) oral gavage dose of the specified study drug on the specified day. The animals were 2.5 to 3.5 years of age and weighed between 3.1 and 4.3 kg at the beginning of the study. Both compounds were formulated in 0.5% methylcellulose (400 cp) and 0.1% Tween 80 (w,v) in water. Blood samples for pharmacokinetics analysis were collected at t=0, 0.25, 0.5, 1, 2, 4, 8, 24 and 48 hours post dose on Day 0 and Day 2. Plasma was prepared by collecting whole blood samples into tubes containing K2EDTA and NaF (final concentrations: ˜1 mg/mL (K2EDTA) and ˜2 mg/mL (NaF)). These tubes were kept in an ice bath prior to centrifugation at approximately 2,000 rcf for 10 minutes at approximately 5° C. To each resultant plasma sample (target volume 200 μL), 4 μL of 50% phosphoric acid (v/v) was added.
[^13C4]-LBQ657 was added as an internal standard to the pharmacokinetic (PK) samples and calibration standards prior to analysis by LC-MS/MS. The LC-MS system consisted of an API6500+ mass spectrometer coupled to an Agilent 1290 HPLC system equipped with a CTC Pal autosampler. The mass spectrometer was operated in the positive ion mode.

Data set [4] is classed as physicochemical. The conditions noted are these: for degradation in solution: 1 day. How it is done:
It was stable at pH of 4.7 and pH of 6.8 up to 70° C. for 3 days.

Data set [5] in a line: Aqueous solubility by visual observation. Type of data set: physicochemical. The conditions noted are these: water; based on visual observation. The method, then:
The solubility value was more than about 500 mg/ml based on visual observation.

The structures appear in SMILES notation. Where two headings read alike, the source gives them in different places.

For the compound `CCOC(=O)[C@H](C)C[C@@H](Cc1ccc(-c2ccccc2)cc1)NC(=O)CCC(=O)N[C@@H](CCCCN)C(=O)OC(C)(C)C` [Compound I-3, Tert-butyl (4-(((2S,4R)-1-([1,1′-biphenyl]-4-yl)-5-ethoxy-4-methyl-5-oxopentan-2-yl)amino)-4-oxobutanoyl)-L-lysinate], in data set [1], the LBQ657 concentration-time profile entry is given as “flattened relative to AHU377”, the “conversion to LBQ657” value is given as “nearly complete conversion to LBQ657” and the tolerability result was “very well tolerated”.
As for `CCOC(=O)[C@H](C)C[C@@H](Cc1ccc(-c2ccccc2)cc1)NC(=O)CCC(=O)O` [AHU377, 4-(((2S,4R)-1-([1,1′-biphenyl]-4-yl)-5-ethoxy-4-methyl-5-oxopentan-2-yl)amino)-4-oxobutanoic acid], the “weight gain (hygroscopicity)” value in data set [2] was found to be 3.4%. For the same compound, the figures for the tolerability result in data set [1] and in data set [3] were “very well tolerated” and “well tolerated”, respectively. Moreover, the degradation in solution in data set [4] (pH 2) was 21.49%; in data set [4] (pH 4.7), 2.63%. In addition, the “solution stability under acidic conditions” value in data set [4] (pH 2) was “unstable”.
Take `CCOC(=O)[C@H](C)C[C@@H](Cc1ccc(-c2ccccc2)cc1)NC(=O)CCC(=O)N[C@@H](CCCCN)C(=O)O` [Compound I-2, (4-(((2S,4R)-1-([1,1′-biphenyl]-4-yl)-5-ethoxy-4-methyl-5-oxopentan-2-yl)amino)-4-oxobutanoyl)-L-lysine]: the solubility in data set [5] is above 500 mg/mL. Moreover, in data set [1], the LBQ657 concentration-time profile result was “flattened relative to AHU377”, the “conversion to LBQ657” value is reported as “nearly complete conversion to LBQ657” and the tolerability entry was “very well tolerated”.

By solubility is commonly meant how much of the substance goes into solution per volume.
